Source: patent US20230041065A1, “METHODS FOR GENERATING HEMATOPOIETIC STEM CELLS” (The Brigham and Women`s Hospital, Inc., priority 2019, published 2023)
Entries after “also recorded” stand apart in the source; their conditions may differ.

Columns and labels:
E11.5 AGM cells = experiment: Whole transcriptome (RNA-seq) analyses of treated E11.5 AGM cells; assay type: cell-based, mouse
Protocol: (§1) RNA-sequencing analyses were performed to measure gene expression patterns in mouse AGM treated with cyclic strain or pharmacological modulators. Using computational algorithms, hierarchical clustering was performed of differentially expressed genes as well as measured their overrepresented biological processes and pathways. Gene expression clusters of differentially expressed genes were analyzed and their mean expression level across cell populations compared. Next, Venn comparison of up- and down-genes was constructed to analyze candidate(s) important for cyclic strain- or pharmacological modulator(s)-mediated the endothelial-to-HSC transition. Furthermore, Dnmt3b and Dnmt3a protein expressions were analyzed in nuclear fractions of mouse AGM cells using EqiQuick assay kits. Data are presented as mean±s.d. unless otherwise noted. Statistical analyses were performed by paired or un-paired Student's t-tests. Significance was set at P<0.05.
Total RNA from E11.5 mouse AGM explant cultures was isolated (control, stretch, Yoda1 and 4αPDD conditions) with the RNAeasy MiniKit (QIAGEN). Our cDNA libraries were generated by BGI Americas Corporation and sequenced with a HiSeq4000 device (Illumina) at eight samples per lane. We mapped our sequenced read fragments to the mouse reference genome GRCm38 (ENSEMBL release 69) using the Genomic Short-Read Nucleotide Alignment program (version 2012-07-20). DESeq2 and DEXSeq were used to test for differential expression (FDR=0.1) and differential exon use, respectively. Gene expression clusters of differentially expressed genes were analyzed and their mean expression level across cell populations compared. Next, Venn comparison was performed of up- and down-genes to analyze candidate(s) important for cyclic strain- or pharmacological modulator(s)-mediating the endothelial-to-HSC transition. Specifically, we performed hierarchical clustering with bootstrap analyses using the gplots package (Warners et al., 2017) in R (R Development Core Team, 2012). […]

Dnmt3b = Dnmt3b protein level in nuclear fractions of E11.5 AGM cells; assay type: cell-based, mouse
Protocol: as §1
Nuclear extracts from AGM explants were harvested using an EpiQuik Nuclear Extraction Kit (Epigentek Group Inc.). Dnmt3b and Dnmt3a protein levels were analyzed using a colorimetric EpiQuik Assay Kit (Epigentek Group Inc.), according to the manufacturer's instructions. Concentration of Dnmt3b and Dnmt3a is relative to 1 μg of nuclear extract proteins.

human PSCs = experiment: FACS analyses of hematopoietic differentiation of human PSCs (embryoid bodies); assay type: cell-based
Protocol: Embryoid body and hemogenic endothelium differentiation was performed as described in (Sugimura et al. 2017; Ditadi et al. 2015). Briefly, hiPSC colonies were dissociated with 0.05% trypsin for 5 min at 37° C., washed with PBS+2% FBS, and resuspended in StemPro-34 (Invitrogen, 10639-011) supplemented with L-glutamine (2 mM), penicillin/streptomycin ([…]), ascorbic acid (1 mM), human holo-Transferrin ([…], Sigma T0665), monothioglycerol (MTG, 0.4 mM), BMP4 (10 ng/ml), and Y-27632 (10 μM). Five million cells were seeded into 10 cm dishes (Ezsphere, Asahi Glass) for the spheroid formation. On Day 1, bFGF (5 ng/ml) and BMP4 (10 ng/ml) was added to the medium. On Day 2, the media was changed with the StemPro-34 supplemented with SB431542 (6 μM), CHIR99021 (3 μM), bFGF (5 ng/ml), and BMP4 (10 ng/ml). On Day 3, the medium was replaced with StemPro-34 supplemented with VEGF (15 ng/ml) and bFGF (10 ng/ml). On day 6, the medium was changed to StemPro-34 supplemented with bFGF (5 ng/ml), VEGF (15 ng/ml), interleukin (IL)-6 (10 ng/ml), IGF-1 (25 ng/ml), IL-11 (5 ng/ml), SCF (50 ng/ml) and EPO (2IU). The cells were maintained in a 5% CO2, 5% O2 and 95% humidity incubator. All cytokines were purchased from Peprotech.
To isolate the CD34^+ cells, the embryoid bodies (from day 8) were dissociated by 0.05% trypsin, filtered through a 70 μm strainer, CD34^+ cells were isolated by CD34 magnetic bead staining, and subsequently passaged through the LS columns (Miltenyi). A sample from every batch was tested by FACS to validate its purity with the panel. The following antibodies were employed: CD34-PEcy7 (Clone 581; Biolegend), FLK1-PE (CLONE #89106; BD), and 4′,6-diamidino-2-phenylindole (DAPI).
Isolated CD34^+ cells were resuspended in StemPro-34 medium containing Y-27632 (10 μM), TPO (30 ng/ml), IL-3 (10 ng/ml), SCF (50 ng/ml), IL-6 (10 ng/ml), IL-11 (5 ng/ml), IGF-1 (25 ng/ml), VEGF (5 ng/ml), bFGF (5 ng/ml), BMP4 (10 ng/ml), and FLT3 (10 ng/ml) (Ferrel et al 2015). Cells were seeded at a density of 50,000 cells per well onto thin-layer Matrigel-coated 24-well plates. […]

Structure (SMILES): Clc1cccc(Cl)c1CSc1nnc(-c2cnccn2)s1 [Yoda1, 2-[5-[[(2,6-Dichlorophenyl)methyl]thio]-1,3,4-thiadiazol-2-yl]-pyrazine]
- Dnmt3b and Gimap6 transcript expression (Venn comparison of up-regulated genes) (E11.5 AGM cells): specifically stimulate Dnmt3b transcript expression and Gimap6 transcript expression
- expression of endothelial genes (E11.5 AGM cells): diminished expression of endothelial genes; also recorded: repress the expression of endothelial genes
- expression of hematopoietic genes (E11.5 AGM cells): elevated expression of hematopoietic genes; also recorded: stimulating the expression of hematopoietic genes
- Dnmt3b protein expression (Dnmt3b): specifically stimulates Dnmt3b protein expression levels
- improvement in the number of HSCs produced from hPSCs (human PSCs; FIG. 7C): 2 Fold
- formation of CD34+CD90+ HSCs (human PSCs; day 8+7 of hematopoietic differentiation): enhances the formation of HSCs from hPSC
- formation of hCD43negCD235negCD144+CD34+ HECs (human PSCs; embryoid bodies, day 8, control and PIEZO1-/- PSCs): enhances the formation of hCD43^negCD235^negCD144^+CD34^+ HE cells in control but not in PIEZO1^−/− PSCs; also recorded: enhances the formation of hCD43^negCD235^negCD144^+CD34^+ HECs in control but not in PIEZO1^−/− PSCs
